Measured values from patent US6849653B2, “Substituted pyrazolyl benzenesulfamide compounds for the treatment of inflammation” (Pharmacia Corporation, priority 2001, dated 2005).
Where a name gives a salt, the structure may show the parent alone. Read-outs that look alike come from different tables or passages of the source.

Target: T1, IKK2 (IKKβ), rhIKK2 homodimer (Homo sapiens, UniProt O14920)
T1 construct: made in house; host or cells: insect cells (baculovirus; SF9)
T1 sequence (O14920 1-756): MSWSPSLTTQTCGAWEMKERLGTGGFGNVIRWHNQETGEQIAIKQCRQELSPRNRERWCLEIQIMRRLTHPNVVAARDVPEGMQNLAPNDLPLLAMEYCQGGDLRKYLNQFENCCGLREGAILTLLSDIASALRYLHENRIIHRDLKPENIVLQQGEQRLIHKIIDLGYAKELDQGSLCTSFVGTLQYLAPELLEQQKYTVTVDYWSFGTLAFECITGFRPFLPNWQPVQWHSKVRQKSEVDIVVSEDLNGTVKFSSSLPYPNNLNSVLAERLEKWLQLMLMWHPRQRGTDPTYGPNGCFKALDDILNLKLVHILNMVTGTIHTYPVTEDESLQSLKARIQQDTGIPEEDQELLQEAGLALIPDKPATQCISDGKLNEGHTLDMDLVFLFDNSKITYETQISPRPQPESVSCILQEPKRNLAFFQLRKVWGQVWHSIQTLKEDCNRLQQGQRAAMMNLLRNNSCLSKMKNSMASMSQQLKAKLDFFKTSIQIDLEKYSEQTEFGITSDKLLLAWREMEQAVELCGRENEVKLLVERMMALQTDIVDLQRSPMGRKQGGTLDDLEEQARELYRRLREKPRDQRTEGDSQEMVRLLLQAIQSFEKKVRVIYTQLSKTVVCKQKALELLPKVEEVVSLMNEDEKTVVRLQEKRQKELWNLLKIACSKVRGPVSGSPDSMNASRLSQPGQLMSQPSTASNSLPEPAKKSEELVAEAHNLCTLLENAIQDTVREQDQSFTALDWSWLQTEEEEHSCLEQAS
Assay: IKKβ (IKK2) Resin Enzyme Assay
Type: biochemical
Settings: read-out: IKK2 Resin IC 50
From the text: cDNAs of human IKK1 and IKK2 were amplified by reverse transcriptase-polymerase chain reaction from human placental RNA (Clonetech). hIKK1 was subcloned into pFastBac HTa (Life Technologies) and expressed as N-terminal His6-tagged fusion protein. The hIKK2 cDNA was amplified using a reverse oligonucleotide primer which incorporated the peptide sequence for a FLAG-epitope tag at the C-terminus of the IKK2 coding region (DYKDDDDKD). The hIKK2:FLAG cDNA was subcloned into the baculovirus vector pFastBac. The rhIKK2 ([…]) mutant was constructed in the same vector used for wild type rhIKK2 using a QuikChange™ mutagenesis kit (Stratagene). Viral stocks of each construct were used to infect insect cells grown in 40L suspension culture. […] Cell lysates were stored at −80° C. until purification of the recombinant proteins was undertaken as described below.
Isolation of rhIKK2 Homodimer
A 10 liter culture of baculovirus-expressing IKK2 tagged with FLAG peptide was centrifuged and the cell pellet (MOI=0.1 and I=72 hrs) was re-suspended in buffer A. These cells were microfluidized, and centrifuged at 100,000×g for 45 min. Supernatant was passed over a G-25 column equilibrated with Buffer A. Protein peak was collected and incubated with anti-FLAG affinity resin on a rotator overnight in buffer B. The resin was washed in batch with 10-15 bed volumes of buffer C. Washed resin was poured into a column and rhIKK2 homodimer was eluted using 5 bed volumes of buffer B containing FLAG peptide. 5 mM DTT, 0.1% NP-40 and BSA (concentrated to 0.1% in final amount) was added to the eluted enzyme before concentrating in using an Amicon membrane with a molecular weight cut-off of 30 kDa. Enzyme was aliquoted and stored at −80° C.
IKKβ kinase activity was measured using a biotinylated IκBα peptide (Gly-Leu-Lys-Lys-Glu-Arg-Leu-Leu-Asp-Asp-Arg-His-Asp-Ser32-Gly-Leu-Asp-Ser36-Met-Lys-Asp-Glu-Glu) (American Peptide Co.). […] contained 5 μM biotinylated IκBα peptide, 0.1 μCi/reaction [γ-^33P] ATP (Amersham) (about 1×10^5 cpm), 1 μM ATP (Sigma), 1 mM DTT (Sigma), 2 mM MgCl2 (Sigma), 2 mM MnCl2 (Sigma), 10 mM NaF (Sigma), 25 mM Hepes (Sigma) buffer, pH 7.6 and 20 μl enzyme solution and […] inhibitor in a final volume of 50 μl. After incubation at 25° C. for 30 min, 150 μl resin (Dowex anion-exchange resin AG1X8 200-400 mesh) in 900 mM formate, pH 3.0 was added to each well to stop the reaction. Resin was allowed to settle for one hour and 50 ul of supernatant was removed to a Micolite-2 flat bottom plate (Dynex). 150 μl of scintillation fluid (Microscint 40) (Packard) was added to each well. Incorporation of [γ-^33P] ATP was measured using a Top-Count NXT (Packard).

SMILES | IC50 (Table 2, values given as bins) [nM] | IC50 (Table 3) [nM] | other results
CS(=O)(=O)c1ccc(-n2nc(C(N)=O)c3ccc4ccc(NC(=O)c5ccccc5Cl)cc4c32)cc1 [Example 37, 8-[(2-chlorobenzoyl)amino]-1-[4-(methylsulfonyl)phenyl]-1H-benzo[g]indazole-3-carboxamide] | ≤ 1000 | – | –
Cc1ccccc1C(=O)Nc1ccc2ccc3c(C(N)=O)nn(-c4ccc(S(C)(=O)=O)cc4)c3c2c1 [Example 38, 8-[(2-methylbenzoyl)amino]-1-[4-(methylsulfonyl)phenyl]-1H-benzo[g]indazole-3-carboxamide] | ≤ 1000 | – | –
CS(=O)(=O)c1ccc(-n2nc(C(N)=O)c3ccc4ccc(NC(=O)c5ccccc5C(F)(F)F)cc4c32)cc1 [Example 39, 1-[4-(methylsulfonyl)phenyl]-8-{[2-(trifluoromethyl)benzoyl]amino}-1H-benzo[g]indazole-3-carboxamide] | 1000 to 10000 | – | –
CS(=O)(=O)c1ccc(-n2nc(C(N)=O)c3ccc4ccc(NC(=O)c5cccc(Cl)c5Cl)cc4c32)cc1 [Example 40, 8-[(2,3-dichlorobenzoyl)amino]-1-[4-(methylsulfonyl)phenyl]-1H-benzo[g]indazole-3-carboxamide] | ≤ 1000 | – | –
CS(=O)(=O)c1ccc(-n2nc(C(N)=O)c3ccc4ccc(NC(=O)c5cccnc5Cl)cc4c32)cc1 [Example 41, 8-{[(2-chloropyridin-3-yl)carbonyl]amino}-1-[4-(methylsulfonyl)phenyl]-1H-benzo[g]indazole-3-carboxamide] | ≤ 1000 | – | –
CS(=O)(=O)c1ccc(-n2nc(C(N)=O)c3ccc4ccc(NC(=O)c5ccccc5F)cc4c32)cc1 [Example 42, 8-[(2-fluorobenzoyl)amino]-1-[4-(methylsulfonyl)phenyl]-1H-benzo[g]indazole-3-carboxamide] | 1000 to 10000 | – | –
NC(=O)c1nn(-c2ccc(F)cc2)c2c1ccc1ccc(NC(=O)c3ccncc3Cl)cc12 [Example 43, 8-[(3-chloroisonicotinoyl)amino]-1-(4-fluorophenyl)-1H-benzo[g]indazole-3-carboxamide] | – | ≤ 1000 | –
NC(=O)c1nn(-c2ccc(F)cc2)c2c1cc(Br)c1ccc(NC(=O)c3ccncc3Cl)cc12 [Example 44] | – | ≤ 1000 | –
NC(=O)c1nn(-c2ccc(F)cc2)c2c1cc(-c1cccnc1)c1ccc(NC(=O)c3ccncc3Cl)cc12 [Example 45, 8-[(3-chloroisonicotinoyl(amino]-1-(4-fluorophenyl)-5-pyridin-3-yl-1H-benzo[g]indazole-3-carboxamidedihydrochloride] | – | 1000 to 10000 | –
NC(=O)c1nn(-c2ccc(F)cc2)c2c1ccc1ccc(N)cc12 [Example 46, 8-amino-1-(4-fluorophenyl)-1H-benzo[g]indazole-3-carboxamide] | – | 10000 to 100000 | –
NC(=O)c1nn(-c2ccc(F)cc2)c2c1ccc1ccc(NC(=O)c3ccccc3Cl)cc12 [Example 47, 8-[(2-chlorobenzoyl)amino]-1-(4-fluorophenyl)-1H-benzo[g]indazole-3-carboxamide] | – | 1000 to 10000 | –
CS(=O)(=O)Nc1ccc2ccc3c(C(N)=O)nn(-c4ccc(F)cc4)c3c2c1 [Example 50, 1-(4-fluorophenyl)-8-[(methylsulfonyl)amino]-1H-benzo[g]indazole-3-carboxamide] | – | ≤ 1000 | –
NC(=O)c1nn(-c2ccc(F)cc2)c2c1ccc1ccc(NC(=O)c3cccnc3Cl)cc12 [Example 51, 8-{[(2-chloropyridin-3-yl)carbonyl]amino}-1-(4-fluorophenyl)-1H-benzo[g]indazole-3-carboxamide] | – | ≤ 1000 | –
NC(=O)c1nn(-c2ccc(F)cc2F)c2c1ccc1ccc(NC(=O)c3cccnc3Cl)cc12 [Example 52, 8-{[(2-chloropyridin-3-yl)carbonyl]amino}-1-(2,4-difluorophenyl)-1H-benzo[g]indazole-3-carboxamide] | – | ≤ 1000 | –
NC(=O)c1nn(-c2ccc3c(c2)OCO3)c2c1ccc1ccc(NC(=O)c3ccccc3Cl)cc12 [Example 54, 1-(1,3-benzodioxol-5-yl)-8-[(2-chlorobenzoyl)amino]-1H-benzo[g]indazole-3-carboxamide] | – | – | IC50 (Table 4, values given as bins): ≤ 1000 nM
NC(=O)c1nn(-c2ccc3c(c2)OCO3)c2c1ccc1ccc(NC(=O)c3cccnc3Cl)cc12 [Example 55, 1-(1,3-benzodioxol-5-yl)-8-{[(2-chloropyridin-3-yl)carbonyl]amino}-1H-benzo[g]indazole-3-carboxamide] | – | – | IC50 (Table 4, values given as bins): ≤ 1000 nM
NC(=O)c1nn(-c2ccc3c(c2)OCO3)c2c1ccc1ccc(N)cc12 [Example 56, 8-amino-1-(1,3-benzodioxol-5-yl)-1H-benzo[g]indazole-3-carboxamide] | – | – | IC50 (Table 4, values given as bins): 1000 to 10000 nM
NC(=O)c1nn(-c2ccc3c(c2)OCO3)c2c1cc(Br)c1ccc(NC(=O)c3cccnc3Cl)cc12 [Example 57, 1-(1,3-benzodioxol-5-yl)-5-bromo-8-{[(2-chloropyridin-3-yl)carbonyl]amino}-1H-benzo[g]indazole-3-carboxamide] | – | – | IC50 (Table 4, values given as bins): ≤ 1000 nM
NC(=O)c1nn(-c2ccc3c(c2)OCO3)c2c1ccc1ccc(NC(=O)c3ccncc3Cl)cc12 [Example 58, 1-(1,3-benzodioxol-5-yl)-8-[(3-chloroisonicotinoyl)amino]-1H-benzo[g]indazole-3-carboxamide] | – | – | IC50 (Table 4, values given as bins): ≤ 1000 nM
